Reference: patent US7329423B2, “Compositions comprising thylakoids useful in the modulation of inflammation process” (Purecell Technologies Inc., priority 2001, dated 2008)

How the values were obtained:
[1] = tested on: TPA-induced inflammation of mouse ears; test: Potentiation of budesonide in TPA-induced mouse ear inflammation (Experiment 10); assay type: in vivo; conditions: BALB/C mice, 24 h
Description: Mice (BALB/C) were kept in individual cages, at 20° C. and 55% relative humidity with 12-h light/12-h dark cycle, in a facility that met the Canadian Council on Animal Care (C.C.A.C.) guidelines. The animals were subjected to an 18-hour starving period prior to treatments. […] of mice were treated in the following manner: • (Treatment-1) No application of cream (n=3); • (Treatment-2) Neutral base cream (n=3); • (Treatment-3) Budesonide (0.1%) in neutral base cream (n=3); • (Treatment-4) Budesonide (0.01%) in neutral base cream (n=3); • (Treatment-5) Budesonide (0.01%)+thylakoid extract (0.05%) in neutral base cream (n=3). All treatments were applied 4 and 8 hours following the inflammatory stress (post-treatment) at a dose of 2 μl/cm^2. Animals were kept in the dark for the duration of the treatments. Prior to treatment, mouse ears were subjected to an inflammatory stress by a topical application of phorbol 12-myristate 13-acetate (TPA) (Sigma Chemicals Co.). 20 μL of TPA (0.2 μg/μL) in an acetone solution was applied (Griswold et al., 1998). The right ear of each mouse was treated with TPA whereas the left ear served as the unstressed control. After 24 hours, the mice were sacrificed and a punch of 6 mm in diameter of both the left and right ears was sampled. Ear punch thickness was measured by an electronic digital caliper 0.01 mm (Traceable).

[2] = tested on: TNBS-induced colonic damage in rat intestine; test: Potentiation of mesalamine in TNBS-stressed rat intestine (Experiment 11); assay type: in vivo; conditions: Wistar rats, mesalamine 57 mg/kg with or without extract 2 mg/kg in the intestinal lumen 24 and 48 h before TNBS
Description: Male Wistar rats (Charles River Laboratories, Montreal) were kept in individual cages, at 20° C. and 55% relative humidity with 12-h light/12-h dark cycle, in a facility that met the Canadian Council on Animal Care (C.C.A.C.) guidelines. The rats were subjected to a 24-hour starving period prior to inflammatory stress induction. Four groups of rats were treated in the following manner: • (Treatment-1) Non-stressed control (n=3); • (Treatment-2) 2,4,6-Trinitrobenzenesulfonic acid (inflammatory agent) in the intestinal lumen (n=3); • (Treatment-3) Mesalamine (5-aminosalicyclic acid; NSAID) (57 mg/kg) administered directly in the intestinal lumen 24 and 48 hours prior to administration of the stress agent (n=3) • (Treatment4) Thylakoid extract (0.05%) (2 mg/kg)+mesalamine (57 mg/kg) administered directly in the intestinal lumen 24 and 48 hours prior to administration of the stress agent (n=3). Twenty-four hours later, the rats were sacrificed and a 10 cm excision of the intestine was sampled.

| Compound | decrease of ear punch thickness ([1]; budesonide 0.01% in neutral base cream 4 and 8 h after TPA) | decrease of ear punch thickness compared to the untreated control (Treatment-1) ([1]; budesonide 0.1% in neutral base cream 4 and 8 h after TPA) | macroscopic colonic damage score (scale 0-10) [2] |
| --- | --- | --- | --- |
| CCCC1O[C@@H]2C[C@H]3[C@@H]4CCC5=CC(=O)C=C[C@]5(C)[C@H]4[C@@H](O)C[C@]3(C)[C@]2(C(=O)CO)O1 (stereo partly drawn) [Budesonide, budesonide] | 32.6% | 58.2% |  |
| Nc1ccc(O)c(C(=O)O)c1 [mesalamine, 5-aminosalicyclic acid] |  |  | 4.0 |
